Patent US11466047B2, “Cyclic di-nucleotide compounds as sting agonists” (Merck Sharp & Dohme Corp., priority 2017, dated 2022)
pEC50: −log10 of the molar value. Like-named read-outs stand apart in the source and are kept apart here.

What was measured:
THP1 cells = experiment: IFN-β secretion in THP1 cell culture (5 h); type: cell-based, human; conditions: 30 μM compound, relative to 2′3′-cGAMP at 30 μM; for activation at 30 µM: Homo sapiens, THP-1, 5 h, read-out: % Effect at 30 μM relative to 2′3′-cGAMP
Protocol: The ability of compounds to stimulate the secretion of interferon-beta from THP1 cells was measured using a human IFN-β AlphaLISA kit (Perkin Elmer, Cat. No. AL265F). The basic protocol is as follows:
A Labcyte Echo 550 acoustic dispenser was used to transfer 120 nL of compound dissolved in DMSO into the wells of an empty, sterile 384-well microplate, (Corning, Cat. No. 3712). THP1 cells (American Type Culture Collection, Cat. No. TIB202) previously frozen in Recovery Medium (Life Technologies, Cat. No. 12648-010) were thawed and immediately diluted 10-fold into 37° C. assay medium (RPMI 1640+L-Glutamine & phenol red, Life Technologies, Cat. No. 11875-085; 0.5% heat inactivated fetal bovine serum, Sigma Aldrich, Cat. No. F4135; 1 mM Sodium Pyruvate, Life Technologies, Cat. No. 11360-070; lx non-essential amino acids; Life Technologies, Cat. No. 11140-050). The cell viability and count was ascertained using a Beckman Coulter V-Cell XR cell counter. The cell suspension was centrifuged at 200×g for 5 min at RT. Cells were resuspended to a density of 0.8×10^6/mL in 37° C. assay medium. Subsequent liquid transfers were performed using either a Matrix electronic multichannel pipette or an Agilent Bravo Automated Liquid Handling Platform.
The assay was started by dispensing 40 μL of the previously prepared cell suspension into the wells of the plate containing compounds. After 5 h incubation at 37° C., 5% CO2 in a humidified atmosphere, the plate of cells and compounds was centrifuged at 200×g for 5 min at RT. From each well, 5 μL of supernatant was transferred into corresponding wells of a white 384-well plate (Perkin Elmer, Cat. No. 6005620). To these supernatant-containing wells was added 10 μL of 5× Anti-Analyte Acceptor beads (50 μg/mL of AlphaLISA HiBlock Buffer) and incubated for 30 min at RT while shaking on an orbital plate shaker. To each well was added 10 μL of 5× Biotinylated Antibody Anti-analyte (5 nM in AlphaLISA HiBlock Buffer) and incubated on an orbital plate shaker for 60 min at RT or overnight at 4° C. To each well was added 25 μL of 2×SA-Donor beads (80 μg/mL in AlphaLISA HiBlock Buffer) and incubated for 30-45 min at RT in the dark while shaking on an orbital plate shaker. The plate was then read on a Perkin Elmer Envision (λex=680 nm, λem=570 nm). The percent effect of the AlphaLISA signal at each compound concentration was calculated based on 30 uM cGAMP positive controls and 0.3% DMSO negative controls. The plot of percent effect versus the log of compound concentration was fit with a 4-parameter concentration response equation to calculate EC50 values. The test compounds were tested at concentrations 30000, 10000, 3333, 1111, 370.4, 123.4, 41.2, 13.7, 4.6, and 1.5 nM with 0.3% residual DMSO. The control compound, cGAMP was tested at concentrations 100000, 33333, 11111, 3704, 1235, 412, 137, 46, and 15 nM with 0.3% residual DMSO.
Compounds of the disclosure were evaluated for IFN-β secretion in THP1 cell culture as described above. The following table tabulates the biological data for these compounds as percent activation relative to 2′3′-cGAMP at the 30 μM concentration.

full-length WT STING = full-length WT STING (Homo sapiens (Human), UniProt Q86WV6, H232R); experiment: 3H-cGAMP filtration binding assay (WT STING); conditions: WT STING membrane
Sequence of full-length WT STING (Q86WV6 whole entry, looked up, stated change not applied): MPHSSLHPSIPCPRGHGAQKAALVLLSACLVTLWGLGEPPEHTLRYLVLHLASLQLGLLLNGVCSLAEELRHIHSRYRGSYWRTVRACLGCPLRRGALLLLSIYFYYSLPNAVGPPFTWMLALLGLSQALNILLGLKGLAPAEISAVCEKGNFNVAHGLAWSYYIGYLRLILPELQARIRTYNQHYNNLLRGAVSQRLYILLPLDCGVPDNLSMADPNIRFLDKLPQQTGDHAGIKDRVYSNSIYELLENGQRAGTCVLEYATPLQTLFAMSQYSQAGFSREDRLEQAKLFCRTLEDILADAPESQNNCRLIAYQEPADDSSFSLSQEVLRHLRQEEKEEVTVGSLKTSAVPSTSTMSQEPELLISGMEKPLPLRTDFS
Protocol: The ability of compounds to bind STING is quantified by their ability to compete with tritiated cGAMP ligand for human STING receptor membrane using a radioactive filter-binding assay. The binding assay employs STING receptor obtained from Trichoplusia ni cell membranes (T.ni; Expression Systems, cat #94-002F, overexpressing full-length WT STING and tritiated cGAMP ligand.
The basic WT STING filtration assay protocol is as follows:
16 nM of [^3H] c-GAMP ligand was prepared by diluting into assay buffer, and 50 uL of this working stock was manually added to each well of the assay plate. After ligand addition, 2 uL of either titrated test compound, DMSO control (Sigma #276855), or cold cGAMP control was added to the appropriate wells using a BIOMEK FX. The serially titrated compound was prepared on a Hamilton STARPlus CORE in a 96-well plate (Greiner, #651201) using a 1:3 ten-point dose response format. Following compound addition, a 2.2 ug/ml working concentration of STING membrane (SEQ. ID. No. 3) was prepared by diluting concentrated membrane into assay buffer (1×PBS; Invitrogen #SH30028.02) and douncing 7× using a manual tissue homogenizer (Wheaton, #357546). 148 uL of this prepared membrane was then manually added to each well of a 96-well deep-well polypropylene plate (Fisher Scientific, #12-566-121). Compound, ligand, and membrane then incubated for 60 min at RT before the contents of each assay plate were filtered through a 96-well GF/B filter plate (PerkinElmer, #6005250) using a TOMTEC MACH III Cell Harvester equipped with 20 mM HEPES buffer (Fisher Scientific, #BP299500). The filter plates were then dried at 55° C. for 30 min using a pressurized VWR oven before 30 uL of ULTIMA GOLD F scintillate was added to each well. Tritium levels for each reaction well were then measured using a PerkinElmer TopCount plate reader.
After normalization to controls, the percent activity for each compound concentration was calculated by measuring the amount of remaining radioactivity. The plot of percent activity versus the log of compound concentration was fit with a 4-parameter dose response equation to calculate EC50 values.

[1] = competition with tritiated cGAMP ligand, read-out: EC50
[2] = EC50, competition with tritiated cGAMP ligand

| Structure (SMILES) | activation at 30 µM (THP1 cells) | pEC50 (full-length WT STING; [1]) | % Effect at 30 μM relative to 2′3′-cGAMP (THP1 cells) | pEC50 (full-length WT STING; [2]) |
| --- | --- | --- | --- | --- |
| Nc1nc2c(ncn2[C@@H]2O[C@@H]3COP(=S)(S)O[C@H]4[C@H](F)[C@H](n5cnc6c(=O)[nH]cnc65)O[C@@H]4COP(O)(=S)O[C@@H]2[C@@H]3F)c(=O)[nH]1 (stereo partly drawn) [Example 27, 2-amino-9-[(5R,7R,8S,12aR,14R,15S,15aR,16R)-15,16-difluoro-10-hydroxy-14-(6-oxo-1,6-dihydro-9H-purin-9-yl)-2-sulfanyl-2,10-disulfidooctahydro-12H-5,8-methanofuro[3,2-1][1,3,6,9,11,2,10]pentaoxadiphosphacyclotetradecin-7-yl]-1,9-dihydro-6H-purin-6-one] | 164% | – | – | – |
| Nc1nc2c(ncn2[C@@H]2O[C@@H]3COP(O)(=S)O[C@H]4C[C@H](n5cnc6c(=O)[nH]cnc65)O[C@@H]4COP(=S)(S)O[C@@H]2C3)c(=O)[nH]1 (stereo partly drawn) [Example 26, 2-amino-9-[(5S,7R,8R,12aR,14R,15aS)-2-hydroxy-14-(6-oxo-1,6-dihydro-9H-purin-9-yl)-10-sulfanyl-2,10-disulfidooctahydro-12H-5,8-methanofuro[3,2-1][1,3,6,9,11,2,10]pentaoxadiphosphacyclotetradecin-7-yl]-1,9-dihydro-6H-purin-6-one] | 75% | 6.39 | – | – |
| Nc1nc2c(ncn2[C@@H]2O[C@@H]3COP(O)(=S)O[C@H]4C[C@H](n5ccc6c(N)ncnc65)O[C@@H]4COP(=S)(S)O[C@@H]2C3)c(=O)[nH]1 (single isomer, unassigned) [Example 14] | 422% | 6.61 | – | – |
| Nc1nc2c(ncn2[C@@H]2O[C@@H]3COP(O)(=S)O[C@H]4C[C@H](n5cnc6c(N)ncnc65)O[C@@H]4COP(=S)(S)O[C@@H]2C3)c(=O)[nH]1 (single isomer, unassigned) [Example 10] | – | – | 91% | 8.22 |
| Nc1nc2c(ncn2[C@@H]2O[C@@H]3COP(O)(=S)O[C@H]4[C@H](F)[C@H](n5cnc6c(N)ncnc65)O[C@@H]4COP(=S)(S)O[C@@H]2[C@@H]3F)c(=O)[nH]1 (single isomer, unassigned) [Example 12] | – | 6.77 | 116% | – |
| Nc1nc2c(ncn2[C@@H]2O[C@@H]3COP(=S)(S)O[C@H]4C[C@H](n5cnc6c(N)ncnc65)O[C@@H]4COP(O)(=S)O[C@@H]2C3)c(=O)[nH]1 (single isomer, unassigned) [Example 4] | – | > 9.00 | 146% | – |
| Nc1nc2c(ncn2[C@@H]2O[C@@H]3COP(=S)(S)O[C@H]4C[C@H](n5cnc6c(N)ncnc65)O[C@@H]4COP(=O)(O)O[C@@H]2C3)c(=O)[nH]1 (stereo partly drawn) [Example 18, 2-amino-9-[(5S,7R,8R,12aR,14R,15aS)-14-(6-amino-9H-purin-9-yl)-10-hydroxy-10-oxido-2-sulfanyl-2-sulfidooctahydro-12H-5,8-methanofuro[3,2-1][1,3,6,9,11,2,10]pentaoxadiphosphacyclotetradecin-7-yl]-1,9-dihydro-6H-purin-6-one] | 153% | 9.00 | – | – |
| Nc1nc2c(ncn2[C@@H]2O[C@@H]3COP(=O)(O)O[C@H]4C[C@H](n5cnc6c(N)ncnc65)O[C@@H]4COP(=S)(S)O[C@@H]2C3)c(=O)[nH]1 (stereo partly drawn) [Example 23, 2-amino-9-[(5S,7R,8R,12aR,14R,15aS)-14-(6-amino-9H-purin-9-yl)-2-hydroxy-2-oxido-10-sulfanyl-10-sulfidooctahydro-12H-5,8-methanofuro[3,2-1] [1,3,6,9,11,2,10]pentaoxadiphosphacyclotetradecin-7-yl]-1,9-dihydro-6H-purin-6-one] | 152% | 7.16 | – | – |
| Nc1nc2c(ncn2[C@@H]2O[C@@H]3COP(O)(=S)O[C@H]4C[C@H](n5cnc6c(N)ncnc65)O[C@@H]4COP(=S)(S)O[C@@H]2C3)c(=O)[nH]1 (single isomer, unassigned) [Example 11] | – | – | 51% | 7.47 |
| Nc1nc2c(ncn2[C@@H]2O[C@@H]3COP(=S)(S)O[C@H]4C[C@H](n5cnc6c(=O)[nH]cnc65)O[C@@H]4COP(O)(=S)O[C@@H]2C3)c(=O)[nH]1 (single isomer, unassigned) [Example 24] | – | 7.72 | 168% | – |
| Nc1nc2c(ncn2[C@@H]2O[C@@H]3COP(=S)(S)O[C@H]4[C@H](F)[C@H](n5cnc6c(N)ncnc65)O[C@@H]4COP(=O)(O)O[C@@H]2[C@@H]3F)c(=O)[nH]1 (stereo partly drawn) [Example 19, 2-amino-9-[(5R,7R,8S,12aR,14R,15S, 15aR,16R)-14-(6-amino-9H-purin-9-yl)-15,16-difluoro-10-hydroxy-10-oxido-2-sulfanyl-2-sulfidooctahydro-12H-5,8-methanofuro[3,2-1][1,3,6,9,11,2,10]pentaoxadiphosphacyclotetradecin-7-yl]-1,9-dihydro-6H-purin-6-one] | 250% | 9.00 | – | – |
| Nc1nc2c(ncn2[C@@H]2O[C@@H]3COP(=S)(S)O[C@H]4C[C@H](n5cnc6c(=O)[nH]cnc65)O[C@@H]4COP(O)(=S)O[C@@H]2C3)c(=O)[nH]1 (single isomer, unassigned) [Example 25] | – | 8.70 | 281% | – |
| Nc1nc2c(ncn2[C@@H]2O[C@@H]3COP(O)(=S)O[C@H]4[C@H]5OC[C@]4(COP(=S)(S)O[C@@H]2[C@H]3F)O[C@H]5n2cnc3c(N)ncnc32)c(=O)[nH]1 (single isomer, unassigned) [Example 15] | 357% | 7.10 | – | – |
| Nc1nc2c(ncn2[C@@H]2O[C@@H]3COP(=O)(O)O[C@H]4[C@H](F)[C@H](n5cnc6c(N)ncnc65)O[C@@H]4COP(=S)(S)O[C@@H]2[C@@H]3F)c(=O)[nH]1 (stereo partly drawn) [Example 22, 2-amino-9-[(5R,7R,8S,12aR,14R,15S,15aR,16R)-14-(6-amino-9H-purin-9-yl)-15,16-difluoro-2-hydroxy-2-oxido-10-sulfanyl-10-sulfidooctahydro-12H-5,8-methanofuro[3,2-l][1,3,6,9,11,2,10]pentaoxadiphosphacyclotetradecin-7-yl]-1,9-dihydro-6H-purin-6-one] | 117% | – | – | 6.29 |
